Measured values reported in patent publication US6299910A, “Methods for identification, purification, and manufacturing of the active constituent in Salvia-miltiorrhiza (dansheng) and the application of this product in enhancing cardiovascular functions” (Techical Sourcing International, Inc., priority 2000, dated 2001).

Columns and labels:
animal = conditions: Chen et al., 1980; cited from earlier work
Platelet aggregation [1] = experiment: Effect of Dansheng components on platelet anti-aggregation, in vitro (Table VI); assay type: cell-based; parameters: key to Effect (platelet anti-aggregation): -: not effective; +: effective; ++: very effective; conditions: for platelet anti-aggregation potency, in words: Tables II and VI
[2] = test system: Red blood cell lysis by H2O2; experiment: Effect of Dansheng components on red blood cell lysis by H2O2 (Table IV); assay type: cell-based; parameters: key to Effect (red blood cell lysis by H2O2): -: not effective; +: effective; ++: very effective; conditions: 0.33 mg/ml; for inhibition at 330 µg/mL: Erythrocyte, read-out: Degree of Inhibition (red blood cell lysis by H2O2)
Procedure: These compounds were prepared at 0.33 mg/ml.

rats [3] = experiment: Effect of Dansheng components on rats under hypoxia condition (Table V); assay type: in vivo; parameters: key to Effect (rats under hypoxia condition): -: not effective; +: effective; ++: very effective; conditions: 100 mg/kg dose
rats [4] = experiment: Life extension / endurance under hypoxia condition (Table III); assay type: in vivo; conditions: for extended rats life (up to): hypoxia, dose not given
Procedure: (§1) The other seven compounds are evaluated based on: [1] Their anti-oxidant activity, [2] Anti-platelet aggregation, and [3] Endurance under hypoxia conditions.
Compounds 6 and 8 effectively extended rats life up to 78% Other compounds are comparatively lower in this category (see Tables III and V below).

Liver cell = experiment: Effect on liver cell MDA amount induced by carbon tetrachloride (antioxidant activity, liver cell protection; Table I); assay type: cell-based; conditions: 0.5 micro mole/ml
Source text: Table I: Effect of Dansheng Constituents on Liver Cell MDA (Molonyldialdehyde) Amount Induced by Carbon Tetrachloride

[5] = Overall bioactivity in three categories: platelet anti-aggregation, life extension under hypoxia, anti-oxidation; conditions: anti-oxidation (liver cell protection)
Procedure: as §1

Platelet aggregation [6] = experiment: Platelet anti-aggregation effect of Magnesium Salvianolate B and its derivatives, in vitro (Table II); assay type: cell-based; conditions: 900 mcg/ml

Row | Compound | animal endurance capacity under hypoxia conditions, in words (animal) | % Inhibition (platelet anti-aggregation) (Platelet aggregation [1]; 900 mcg/ml, in vitro) [%] | Effect (red blood cell lysis by H2O2) [2] | Effect (rats under hypoxia condition) (rats [3]) | Life Expanded (rats [3]) [%] | inhibition at 180 µg/mL (Platelet aggregation [1]; Platelet, 180 mcg/ml, in vitro) [%] | inhibition at 330 µg/mL [2] [%] | further results
1 | O=C(/C=C/c1ccc(O)c2c1[C@H](C(=O)O[C@H](Cc1ccc(O)c(O)c1)C(=O)O)[C@@H](c1ccc(O)c(O)c1)O2)O[C@H](Cc1ccc(O)c(O)c1)C(=O)O [Salvianolic Acid B] | increase animal endurance capacity under hypoxia conditions | – | – | – | – | – | – | –
2 | O=C(/C=C/c1ccc(O)c2c1C(C(=O)O)C(c1ccc(O)c(O)c1)O2)OC(Cc1ccc(O)c(O)c1)C(=O)O (stereo not shown) [Compound 4, Magnesium Lithospermate] | – | 28 | ++ | + | 45 | – | – | % Inhibition (platelet anti-aggregation) (Platelet aggregation [1]; 180 mcg/ml, in vitro): 0%; Degree of Inhibition (red blood cell lysis by H2O2) [2]: 100%
3 | O=Cc1ccc(O)c(O)c1 [Protocatechualdehydes, Protocatechualdehyde] | increase animal endurance capacity under hypoxia conditions | – | – | – | – | – | – | –
4 | O=C(/C=C/c1ccc(O)c2c1C(C(=O)OC(Cc1ccc(O)c(O)c1)C(=O)O)C(c1ccc(O)c(O)c1)O2)OC(Cc1ccc(O)c(O)c1)C(=O)O (stereo not shown) [Compound 6, Magnesium Salvianolate B] | – | 74 | ++ | ++ | 65 | – | – | % Inhibition (platelet anti-aggregation) (Platelet aggregation [1]; 180 mcg/ml, in vitro): 0%; Effect (platelet anti-aggregation) (Platelet aggregation [1]; 900 mcg/ml, in vitro): +; inhibition at 450 µg/mL (Platelet aggregation [1]; Platelet, 450 mcg/ml, in vitro): 15%; platelet anti-aggregation potency, in words (Platelet aggregation [1]): highest potency; platelet anti-aggregation potency, in words (Platelet aggregation [1]; listed as MSV): most potent; % Life Extension (rats [4]; hypoxia condition, 200 mg/kg dose): 78%; extended rats life (up to) (rats [4]): up to 78%; secretion of MDA from liver cell, in words (Liver cell): decreases the secretion of MDA from liver cell; bioactivity level, in words [5]: highest bioactivity level; bioactivity level, in words ([5]; listed as Magnesium Salvianolate B): most biologically effective compound; inhibition at 900 µg/mL (Platelet aggregation [6]): 94%; Degree of Inhibition (red blood cell lysis by H2O2) [2]: 100%
5 | O=C(/C=C/c1ccc(O)c(O)c1)O[C@H](Cc1ccc(O)c(O)c1)C(=O)O [Compound 2, Sodium Rosmarinate] | – | – | ++ | ++ | 42 | 0 | 100 | inhibition at 900 µg/mL (Platelet aggregation [1]; Platelet, 900 mcg/ml, in vitro): 13%
6 | O=C(O)C(O)Cc1ccc(O)c(O)c1 (stereo not shown) [Danshensu, 3',4 phenyllatic Acid] | increase animal endurance capacity under hypoxia conditions | – | – | – | – | – | – | –
7 | O=C(O)C(O)Cc1ccc(O)c(O)c1 (stereo not shown) [Compound 1, Potassium 3' 4-dihydroxyphenyllactate] | – | – | ++ | – | – | 0 | 100 | inhibition at 900 µg/mL (Platelet aggregation [1]; Platelet, 900 mcg/ml, in vitro): 0%; bioactivity level, in words [5]: lowest bio-activity level
8 | Magnesium Isosalvianolate B [Compound 8] | – | 20 | ++ | ++ | 69 | – | – | % Inhibition (platelet anti-aggregation) (Platelet aggregation [1]; 180 mcg/ml, in vitro): 0%; extended rats life (up to) (rats [4]): up to 78%; Degree of Inhibition (red blood cell lysis by H2O2) [2]: 100%
9 | O=C(/C=C/c1ccc(O)c2c1C(C(=O)O)C(c1ccc(O)c(O)c1)O2)OC(Cc1ccc(O)c(O)c1)C(=O)O (stereo not shown) [Compound 3, Dipotassium Lithospermate] | – | – | ++ | + | 23 | 0 | 100 | inhibition at 900 µg/mL (Platelet aggregation [1]; Platelet, 900 mcg/ml, in vitro): 18%
10 | O=C(/C=C/c1ccc(O)c2c1C(C(=O)OC(Cc1ccc(O)c(O)c1)C(=O)O)C(c1ccc(O)c(O)c1)O2)OC(Cc1ccc(O)c(O)c1)C(=O)O (stereo not shown) [Compound 5, Dipotassium Salvianolate B] | – | 44 | ++ | – | – | 0 | 100 | Effect (platelet anti-aggregation) (Platelet aggregation [1]; 900 mcg/ml, in vitro): +
11 | O=C(/C=C/c1ccc(O)c(O)c1/C=C/c1ccc(O)c(O)c1)OC(Cc1ccc(O)c(O)c1)C(=O)O (stereo not shown) [Salvianolic Acid A] | increase animal endurance capacity under hypoxia conditions | – | – | – | – | – | – | –
